Laboratory results published in ChEMBL document CHEMBL3797112, “Flavonoid profile and antileukemic activity of Coreopsis lanceolata flowers” (Bioorg Med Chem Lett, 2016).
Active and inactive are the calls of the source. The rule behind the calls is not given here.

Assays:
HL-60 [1] = assay: (§1) Antiproliferative activity against human HL60 cells assessed as cell survival at 25 uM incubated for 48 hrs by CCK8 assay; format: functional
[2] = Retention time of the compound by UPLC-ESI-MS method; format: physicochemical
[3] = as §1; format: functional; conditions: HL-60, 48 h, read-out: Survival
HL-60 [4] = assay: Induction of apoptosis in human HL60 cells assessed as induction of morphological changes at 25 uM incubated for 48 hrs by Hoechst-33342 staining assay; format: functional, cell-based
HL-60 [5] = assay: Induction of apoptosis in human HL60 cells at 25 uM incubated for 48 hrs by Giemsa staining assay; format: functional, cell-based

With `COc1c(O)ccc(C(=O)/C=C/c2ccc(O)c(O)c2)c1O` the Activity (HL-60 [1]) was “inactive” and the Retention_time [2] was 30.97 min.

In the case of `O=C(/C=C/c1ccc(O)c(O)c1)c1ccc(O)c(O)c1O`, the Activity (HL-60 [1]) was “inactive” and the Retention_time [2] was 20.14 min.

In the case of `COc1c(O)ccc2c1O/C(=C\c1ccc(O)c(O)c1)C2=O`, the Activity (HL-60 [1]) was “inactive” and the Retention_time [2] was 25.04 min.

Work on `CC(=O)O[C@H]1C(=O)[C@@]2(C)[C@H]([C@H](OC(=O)c3ccccc3)[C@]3(O)C[C@H](OC(=O)[C@H](O)[C@@H](NC(=O)c4ccccc4)c4ccccc4)C(C)=C1C3(C)C)[C@]1(OC(C)=O)CO[C@@H]1C[C@@H]2O` [PACLITAXEL] yielded a viability at 25 µM [3] of 18.9%.

With `COc1c(O)ccc2c1O[C@H](c1ccc(O)c(O)c1)CC2=O` the Activity (HL-60 [1]) was “inactive” and the Retention_time [2] was 18.52 min.

For `COc1c(O[C@@H]2O[C@H](CO)[C@@H](O)[C@H](O)[C@H]2O)ccc2c1O/C(=C\c1ccc(O)c(O)c1)C2=O`, the Activity (HL-60 [1]) was “inactive” and the Retention_time [2] was 16.07 min.

In the case of `COc1ccc(/C=C/C(=O)c2ccc(O)c(OC)c2O)cc1O`, the viability at 25 µM [3] was 23.8%, the Retention_time [2] was 41.24 min and the Activity (HL-60 [4]) was “Active”. The Activity (HL-60 [5]) was “Active”.
